US5196327A, “Process for producing antifungal fermentation products and compositions thereof” (Merck & Co., Inc., priority 1991, dated 1993)
Converted amounts (≈) assume the structure as drawn.

Key:
Sac. cerevisiae MY1027 = test: Agar dilution assay, MIC; assay type: cell-based, Saccharomyces cerevisiae; details: Saccharomyces cerevisiae; strain MY1027; yeast nitrogen base dextrose agar; read-out: Minimum Inhibitory Concentration
Protocol: (§1) In separate operations, in vitro antifungal activity determinations were carried out with Compound IB and with Compound IC against a panel of filamentous and yeast-like fungi employing yeast nitrogen base dextrose agar medium. In carrying out the assay, the compound to be tested was solubilized in 10 percent dimethyl sulfoxide (DMSO) supplemented with one drop of Tween 20. Two-fold dilutions were made with sterile distilled water/10% DMSO to obtain final concentrations in the agar dilution assay plates ranging from 64 to 0.06 μg/ml in the operation with Compound IB and from 128 to 0.06 μg/ml in the operation with Compound IC.
(§2) Nystatin (commercially available antifungal agent) was used as a positive antifungal control.

Ca. rugosa MY1022 = test: Agar dilution assay, MIC; assay type: cell-based, Candida rugosa; details: strain MY1022; yeast nitrogen base dextrose agar; read-out: Minimum Inhibitory Concentration
Protocol: as §1, §2

Cr. neoformans MY1146 = test: Agar dilution assay, MIC; assay type: cell-based, Cryptococcus neoformans; details: strain MY1146; yeast nitrogen base dextrose agar; read-out: Minimum Inhibitory Concentration
Protocol: as §1, §2

Ca. albicans MY1055 = test: Agar dilution assay, MIC; assay type: cell-based, Candida albicans; details: strain MY1055; yeast nitrogen base dextrose agar; read-out: Minimum Inhibitory Concentration
Protocol: as §1, §2

Ca. albicans MY1013 = test: Agar dilution assay, MIC; assay type: cell-based, Candida albicans; details: strain MY1013; yeast nitrogen base dextrose agar; read-out: Minimum Inhibitory Concentration
Protocol: as §1, §2

Ca. albicans MY0992 = test: Agar dilution assay, MIC; assay type: cell-based, Candida albicans; details: strain MY0992; yeast nitrogen base dextrose agar; read-out: Minimum Inhibitory Concentration
Protocol: as §1, §2

Ca. albicans MY1029 = test: Agar dilution assay, MIC; assay type: cell-based, Candida albicans; details: strain MY1029; yeast nitrogen base dextrose agar; read-out: Minimum Inhibitory Concentration
Protocol: as §1, §2

Ca. tropicalis MY1012 = test: Agar dilution assay, MIC; assay type: cell-based, Candida tropicalis; details: strain MY1012; yeast nitrogen base dextrose agar; read-out: Minimum Inhibitory Concentration
Protocol: as §1, §2

Ca. tropicalis MY1011 = test: Agar dilution assay, MIC; assay type: cell-based, Candida tropicalis; details: strain MY1011; yeast nitrogen base dextrose agar; read-out: Minimum Inhibitory Concentration
Protocol: as §1, §2

[1] = system: Torulopsis glabrata MY1059; test: Agar dilution assay, MIC; assay type: cell-based; details: strain MY1059; yeast nitrogen base dextrose agar; read-out: Minimum Inhibitory Concentration
Protocol: as §1, §2

Ca. parapsilosis MY1009 = test: Agar dilution assay, MIC; assay type: cell-based; details: strain MY1009; yeast nitrogen base dextrose agar; read-out: Minimum Inhibitory Concentration
Protocol: as §1, §2

[2] = system: Penicillium italicum MF2819; test: Agar dilution assay, MIC; assay type: cell-based; details: strain MF2819; yeast nitrogen base dextrose agar; read-out: Minimum Inhibitory Concentration
Protocol: as §1, §2

Ca. stellatoidea MY1017 = test: Agar dilution assay, MIC; assay type: cell-based; details: strain MY1017; yeast nitrogen base dextrose agar; read-out: Minimum Inhibitory Concentration
Protocol: as §1, §2

Ca. krusei MY1020 = test: Agar dilution assay, MIC; assay type: cell-based; details: strain MY1020; yeast nitrogen base dextrose agar; read-out: Minimum Inhibitory Concentration
Protocol: as §1, §2

Candida albicans MY1058 = test: Agar dilution assay, MIC; assay type: cell-based; details: strain MY1058; yeast nitrogen base dextrose agar; read-out: Minimum Inhibitory Concentration
Protocol: as §1, §2

[3] = system: Cryptococcus neoformans MY1051; test: Agar dilution assay, MIC; assay type: cell-based; details: strain MY1051; yeast nitrogen base dextrose agar; read-out: Minimum Inhibitory Concentration
Protocol: as §1, §2

Ca. guilliermondi MY1019 = test: Agar dilution assay, MIC; assay type: cell-based; details: strain MY1019; yeast nitrogen base dextrose agar; read-out: Minimum Inhibitory Concentration
Protocol: as §1, §2

Ca. parapsilosis MY1010 = test: Agar dilution assay, MIC; assay type: cell-based; details: strain MY1010; yeast nitrogen base dextrose agar; read-out: Minimum Inhibitory Concentration
Protocol: as §1, §2

[4] = system: Aspergillus fumigatus MF4839; test: Agar dilution assay, MIC; assay type: cell-based; details: strain MF4839; yeast nitrogen base dextrose agar; read-out: Minimum Inhibitory Concentration
Protocol: as §1, §2

[5] = system: Ca. pseudotropicalis MY1040; test: Agar dilution assay, MIC; assay type: cell-based, Candida pseudotropicalis; details: strain MY1040; yeast nitrogen base dextrose agar; read-out: Minimum Inhibitory Concentration
Protocol: as §1, §2

A. flavus MF0383 = test: Agar dilution assay, MIC; assay type: cell-based, Aspergillus flavus; details: strain MF0383; yeast nitrogen base dextrose agar; read-out: Minimum Inhibitory Concentration
Protocol: as §1, §2

[6] = system: panel of representative yeasts, filamentous fungi (molds) and bacteria; test: Antifungal disc diffusion assay, panel; assay type: cell-based; details: panel of organisms
Text: The antifungal activity of the compounds may be detected in an antifungal assay employing disc diffusion methods against a panel of representative yeasts, filamentous fungi (molds) and bacteria.
The filamentous fungi used in the assay are Cochliobolus miyabeanus, Penicillium sp. (three strains), Aspergillus niger, Trichoderma sp., Phoma sp., Trichoderma lignorum, Fusarium oxysporum, Ustilago maydis, Ceratocystis ulmi, Alternaria solani, Verticillium serrae, Botrytis allii, Scopulariopsis communis, Cephalosporium sp., Cercospora beticola, […], Rhizomucor miehei, Aspergillus flavus and Aspergillus fumigatus.
The yeasts employed in the assay are Saccharomyces cerevisiae, Candida albicans, […], Candida tropicalis, Candida rugosa, Brettanomyces bruxellensis, Torulospora hansenii, Candida quilliermondi, Candida pseudotropicalis, Torulopsis glabrata, Cryptococcus albidus, and Cryptococcus laurentii.
The bacteria employed in the assay are Streptomyces sp., Acholeplasma laidlawii and Bacillus subtilis.
For carrying out the assay, seeded assay plates are prepared in the following manner according to the type of assay strain.
Inocula for filamentous fungi are prepared by scraping the surface of stock plates maintained on potato dextrose agar with a moistened sterile dacron swab. The spores and mycelia are then suspended in 10 milliliters of sterile potato dextrose broth and adjusted to 70 percent transmission at 660 nm.
Inocula for yeasts and bacterial strains are prepared from overnight broth cultures then diluted into potato dextrose agar to a final concentration of either 40 percent or 70 percent transmission at 660 nm.
When the organism is Acholephasma laidlawii, it is suspended in brain heart infusion broth supplemented with 2.5 percent yeast extract and 20 percent heat inactivated horse serum, and the broth adjusted to a final concentration of 60 percent transmission at 660 nm. […]
Following incubation, the inhibition zones are measured and recorded. […]

Row | SMILES | MIC (Sac. cerevisiae MY1027) | MIC (Ca. rugosa MY1022) | MIC (Cr. neoformans MY1146) | MIC (Ca. albicans MY1055) | MIC (Ca. albicans MY1013) | MIC (Ca. albicans MY0992) | MIC (Ca. albicans MY1029) | MIC (Ca. tropicalis MY1012) | MIC (Ca. tropicalis MY1011) | MIC [1] | MIC (Ca. parapsilosis MY1009) | MIC [2] | MIC (Ca. stellatoidea MY1017) | MIC (Ca. krusei MY1020) | MIC (Candida albicans MY1058) | MIC [3] | MIC (Ca. guilliermondi MY1019) | MIC (Ca. parapsilosis MY1010) | MIC [4] | MIC [5] | further results
1 | CCCCCCC(O)CCCCCCC=CC(OC(C)=O)C(O)C(O)C(N)C(=O)O (stereo not shown) [Compound IC, 5-acetyloxy-2-amino-3,4,14-trihydroxy-6-eicosenoic acid] | 32 µg/mL (≈ 74.1 µM) | > 128 µg/mL | 2 µg/mL (≈ 4.63 µM) | 128 µg/mL (≈ 297 µM) | 128 µg/mL (≈ 297 µM) | 128 µg/mL (≈ 297 µM) | > 128 µg/mL | 2 µg/mL (≈ 4.63 µM) | 32 µg/mL (≈ 74.1 µM) | 16 µg/mL (≈ 37.1 µM) | > 128 µg/mL | 32 µg/mL (≈ 74.1 µM) | 32 µg/mL (≈ 74.1 µM) | > 128 µg/mL | 32 µg/mL (≈ 74.1 µM) | 2 µg/mL (≈ 4.63 µM) | > 128 µg/mL | 8 µg/mL (≈ 18.5 µM) | 64 µg/mL (≈ 148 µM) | 2 µg/mL (≈ 4.63 µM) | MIC (A. flavus MF0383): 64 µg/mL (≈ 148 µM)
2 | CCCCCCC(O)CCCCCCC=CC(O)C(O)C(O)C(N)C(=O)O (stereo not shown) [Compound IB, 2-amino-3,4,5,14-tetrahydroxy-6-eicosengoic acid] | 16 µg/mL (≈ 41.1 µM) | > 64 µg/mL | 2 µg/mL (≈ 5.13 µM) | 32 µg/mL (≈ 82.1 µM) | 32 µg/mL (≈ 82.1 µM) | 32 µg/mL (≈ 82.1 µM) | 64 µg/mL (≈ 164 µM) | 2 µg/mL (≈ 5.13 µM) | 16 µg/mL (≈ 41.1 µM) | 16 µg/mL (≈ 41.1 µM) | 32 µg/mL (≈ 82.1 µM) | > 64 µg/mL | 16 µg/mL (≈ 41.1 µM) | > 64 µg/mL | 16 µg/mL (≈ 41.1 µM) | 2 µg/mL (≈ 5.13 µM) | > 64 µg/mL | 2 µg/mL (≈ 5.13 µM) | 64 µg/mL (≈ 164 µM) | 0.5 µg/mL (≈ 1.28 µM) | MIC (A. flavus MF0383): 64 µg/mL (≈ 164 µM); antifungal activity [6]: consistently active against most of the 41 of the filamentous fungi and yeasts
